Like-named read-outs stand apart in the source and are kept apart here.
Columns and labels:
[1] = molecular target: T1, MAO-A (monoamine oxidase A) (Rattus norvegicus, UniProt P21396); assay: SafetyScreen44: MAO-A; assay type: binding
T1 construct: purchased Eurofins Cerep SafetyScreen44
T1 sequence (P21396 1-526): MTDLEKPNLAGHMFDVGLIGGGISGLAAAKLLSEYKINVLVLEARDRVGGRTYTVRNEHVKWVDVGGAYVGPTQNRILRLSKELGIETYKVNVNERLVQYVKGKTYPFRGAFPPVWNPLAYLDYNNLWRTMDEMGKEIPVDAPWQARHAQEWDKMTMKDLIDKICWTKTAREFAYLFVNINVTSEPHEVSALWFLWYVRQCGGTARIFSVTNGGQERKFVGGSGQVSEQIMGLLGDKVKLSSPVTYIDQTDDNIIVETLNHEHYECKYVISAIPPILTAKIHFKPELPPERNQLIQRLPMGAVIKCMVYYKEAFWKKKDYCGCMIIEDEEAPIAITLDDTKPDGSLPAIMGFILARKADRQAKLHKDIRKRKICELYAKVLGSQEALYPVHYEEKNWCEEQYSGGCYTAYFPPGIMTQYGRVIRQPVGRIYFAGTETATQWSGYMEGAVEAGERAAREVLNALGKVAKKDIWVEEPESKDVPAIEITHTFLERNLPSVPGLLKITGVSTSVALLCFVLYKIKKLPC

[2] = First-in-human study, pharmacokinetics; assay type: in vivo; conditions: healthy participants
Method: The purpose of the first-in-human, single-center, randomized, double-blind, placebo-controlled study was to determine the safety, tolerability, pharmacokinetics, and pharmacodynamics of JNJ-77242113 in healthy participants. […] AEs were coded using the Medical Dictionary for Regulatory Activities (Version 23.1).
Whole blood samples were collected in TruCulture Tubes containing 10 ng/mL IL-2 and 20 ng/mL IL-18 with or without additional IL-23 (0.5 ng/mL, R&D Systems/Biotechne). […] IFNγ was quantified via the V-Plex-plus human IFNγ kit (MSD).
Mean concentration–time profiles for each treatment/dose group were presented graphically. Descriptive statistics were used to describe demographic and safety data.

[3] = molecular target: T2, CCK1 (CCKA) (cholecystokinin 1 receptor) (Homo sapiens, UniProt P32238); assay: SafetyScreen44: CCK1 (CCKA); assay type: binding
T2 construct: purchased Eurofins Cerep SafetyScreen44
T2 sequence (P32238 1-428): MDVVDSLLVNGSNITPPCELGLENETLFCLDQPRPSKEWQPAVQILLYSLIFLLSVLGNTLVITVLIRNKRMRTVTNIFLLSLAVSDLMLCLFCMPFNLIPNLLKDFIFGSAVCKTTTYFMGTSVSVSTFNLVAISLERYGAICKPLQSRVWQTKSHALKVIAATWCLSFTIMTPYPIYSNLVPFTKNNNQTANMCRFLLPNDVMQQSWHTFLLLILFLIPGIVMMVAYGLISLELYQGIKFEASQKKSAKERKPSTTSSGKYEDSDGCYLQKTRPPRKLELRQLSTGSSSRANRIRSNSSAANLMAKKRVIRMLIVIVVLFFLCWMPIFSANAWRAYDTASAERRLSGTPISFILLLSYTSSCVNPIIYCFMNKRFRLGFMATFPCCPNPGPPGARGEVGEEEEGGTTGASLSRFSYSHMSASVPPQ

[4] = molecular target: T3, CB2 (cannabinoid receptor type 2) (Homo sapiens, UniProt P34972); assay: SafetyScreen44: CB2; assay type: binding
T3 construct: purchased Eurofins Cerep SafetyScreen44

[5] = molecular target: T4, M1 (muscarinic acetylcholine receptor M1) (Homo sapiens, UniProt P11229); assay: SafetyScreen44: M1; assay type: binding
T4 construct: purchased Eurofins Cerep SafetyScreen44
T4 sequence (P11229 1-460): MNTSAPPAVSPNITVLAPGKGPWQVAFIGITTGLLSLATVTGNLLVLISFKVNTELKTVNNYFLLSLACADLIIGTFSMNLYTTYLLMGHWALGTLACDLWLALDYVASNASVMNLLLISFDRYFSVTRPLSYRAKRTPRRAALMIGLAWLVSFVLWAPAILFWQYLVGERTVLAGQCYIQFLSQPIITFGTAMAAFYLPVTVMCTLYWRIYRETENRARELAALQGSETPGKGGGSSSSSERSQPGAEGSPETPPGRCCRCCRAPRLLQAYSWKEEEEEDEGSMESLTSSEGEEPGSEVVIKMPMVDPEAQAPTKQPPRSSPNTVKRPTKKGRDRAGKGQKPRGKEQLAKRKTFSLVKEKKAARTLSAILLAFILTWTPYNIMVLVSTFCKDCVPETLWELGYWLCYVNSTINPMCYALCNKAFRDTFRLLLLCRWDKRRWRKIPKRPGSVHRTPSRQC

[6] = molecular target: T5, β1 (beta-1 adrenergic receptor) (Homo sapiens, UniProt P08588); assay: SafetyScreen44: β1; assay type: binding
T5 construct: purchased Eurofins Cerep SafetyScreen44

[7] = molecular target: T6, H1 (histamine H1 receptor) (Homo sapiens, UniProt P35367); assay: SafetyScreen44: H1; assay type: binding
T6 construct: purchased Eurofins Cerep SafetyScreen44

[8] = molecular target: T7, μ (MOP) (mu opioid receptor) (Homo sapiens, UniProt P35372); assay: SafetyScreen44: μ (MOP); assay type: binding
T7 construct: purchased Eurofins Cerep SafetyScreen44

[9] = molecular target: T8, δ (DOP) (delta opioid receptor) (Homo sapiens, UniProt P41143); assay: SafetyScreen44: δ (DOP); assay type: binding
T8 construct: purchased Eurofins Cerep SafetyScreen44

COX1 = molecular target: T9, COX1 (Homo sapiens, UniProt P23219); assay: SafetyScreen44: COX1; assay type: biochemical
T9 construct: purchased Eurofins Cerep SafetyScreen44

[10] = Part 2 (MAD), once daily oral dosing for 10 days

T7 sequence (P35372 whole entry): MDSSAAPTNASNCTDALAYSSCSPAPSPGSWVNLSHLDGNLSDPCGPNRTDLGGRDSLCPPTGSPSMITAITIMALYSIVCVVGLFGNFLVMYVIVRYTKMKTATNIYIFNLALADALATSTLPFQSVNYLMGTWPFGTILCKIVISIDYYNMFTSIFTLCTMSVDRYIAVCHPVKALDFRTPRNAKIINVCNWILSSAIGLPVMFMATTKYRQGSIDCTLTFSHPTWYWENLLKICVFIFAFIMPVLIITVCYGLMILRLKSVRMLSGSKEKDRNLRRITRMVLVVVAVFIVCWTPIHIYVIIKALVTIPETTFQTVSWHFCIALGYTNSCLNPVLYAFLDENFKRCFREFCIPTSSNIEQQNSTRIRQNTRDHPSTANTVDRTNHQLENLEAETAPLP
T3 sequence (P34972 whole entry): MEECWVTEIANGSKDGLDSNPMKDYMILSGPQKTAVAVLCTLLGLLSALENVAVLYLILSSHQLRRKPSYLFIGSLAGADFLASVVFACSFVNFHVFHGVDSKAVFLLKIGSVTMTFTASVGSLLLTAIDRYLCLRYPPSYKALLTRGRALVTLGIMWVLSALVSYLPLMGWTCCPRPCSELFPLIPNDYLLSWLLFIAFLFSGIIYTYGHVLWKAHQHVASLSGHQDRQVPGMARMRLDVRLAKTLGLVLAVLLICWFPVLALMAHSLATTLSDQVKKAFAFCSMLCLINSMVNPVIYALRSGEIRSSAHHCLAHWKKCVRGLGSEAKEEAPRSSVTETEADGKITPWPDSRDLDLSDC
T5 sequence (P08588 whole entry): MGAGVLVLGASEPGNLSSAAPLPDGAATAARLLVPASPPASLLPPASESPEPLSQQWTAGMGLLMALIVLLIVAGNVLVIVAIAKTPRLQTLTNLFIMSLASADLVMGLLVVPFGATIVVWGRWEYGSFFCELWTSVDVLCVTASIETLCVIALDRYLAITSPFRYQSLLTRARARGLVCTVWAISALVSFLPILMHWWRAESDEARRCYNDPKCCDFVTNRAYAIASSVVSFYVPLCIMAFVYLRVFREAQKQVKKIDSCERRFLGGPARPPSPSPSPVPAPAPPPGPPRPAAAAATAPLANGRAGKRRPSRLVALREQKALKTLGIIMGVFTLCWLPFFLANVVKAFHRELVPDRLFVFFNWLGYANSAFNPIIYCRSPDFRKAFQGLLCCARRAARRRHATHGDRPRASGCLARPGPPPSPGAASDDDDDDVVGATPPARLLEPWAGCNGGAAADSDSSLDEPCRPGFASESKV
T8 sequence (P41143 whole entry): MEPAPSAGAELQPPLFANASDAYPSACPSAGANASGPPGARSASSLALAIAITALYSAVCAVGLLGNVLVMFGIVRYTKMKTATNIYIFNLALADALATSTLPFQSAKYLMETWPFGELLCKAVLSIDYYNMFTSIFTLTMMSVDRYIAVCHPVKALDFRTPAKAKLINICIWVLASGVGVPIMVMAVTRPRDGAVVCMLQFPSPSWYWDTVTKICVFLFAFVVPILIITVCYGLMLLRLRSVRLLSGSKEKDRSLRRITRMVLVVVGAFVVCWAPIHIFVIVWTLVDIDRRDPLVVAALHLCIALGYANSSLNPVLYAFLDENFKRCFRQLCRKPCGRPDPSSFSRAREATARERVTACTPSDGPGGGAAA
T9 sequence (P23219 24-599): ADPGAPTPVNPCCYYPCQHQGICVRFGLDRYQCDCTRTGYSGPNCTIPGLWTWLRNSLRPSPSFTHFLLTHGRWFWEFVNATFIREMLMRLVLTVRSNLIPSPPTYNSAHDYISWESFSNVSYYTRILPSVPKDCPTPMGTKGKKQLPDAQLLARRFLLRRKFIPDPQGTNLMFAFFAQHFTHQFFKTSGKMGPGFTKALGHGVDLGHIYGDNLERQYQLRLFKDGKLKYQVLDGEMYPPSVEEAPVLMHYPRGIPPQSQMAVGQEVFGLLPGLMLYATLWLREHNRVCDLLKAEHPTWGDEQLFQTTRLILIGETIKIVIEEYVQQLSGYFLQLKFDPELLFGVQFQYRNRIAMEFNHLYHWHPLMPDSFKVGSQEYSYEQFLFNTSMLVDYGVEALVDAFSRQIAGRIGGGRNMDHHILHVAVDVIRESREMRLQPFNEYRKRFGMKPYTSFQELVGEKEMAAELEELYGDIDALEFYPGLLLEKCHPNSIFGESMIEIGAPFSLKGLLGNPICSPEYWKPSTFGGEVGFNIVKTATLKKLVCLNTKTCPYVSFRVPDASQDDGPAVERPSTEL
T6 sequence (P35367 whole entry): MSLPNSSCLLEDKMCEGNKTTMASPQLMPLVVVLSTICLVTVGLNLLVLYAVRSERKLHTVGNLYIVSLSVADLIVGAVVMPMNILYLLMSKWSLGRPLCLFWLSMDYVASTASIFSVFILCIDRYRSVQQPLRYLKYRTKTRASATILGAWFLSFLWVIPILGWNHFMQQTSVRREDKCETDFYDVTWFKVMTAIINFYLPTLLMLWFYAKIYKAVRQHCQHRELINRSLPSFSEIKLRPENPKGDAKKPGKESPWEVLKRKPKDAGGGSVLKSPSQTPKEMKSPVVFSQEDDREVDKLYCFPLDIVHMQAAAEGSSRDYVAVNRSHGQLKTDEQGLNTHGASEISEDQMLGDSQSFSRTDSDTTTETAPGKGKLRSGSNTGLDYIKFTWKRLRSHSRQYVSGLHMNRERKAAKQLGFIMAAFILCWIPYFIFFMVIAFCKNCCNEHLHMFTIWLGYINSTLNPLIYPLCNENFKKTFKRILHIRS

Work on `CC(=O)NCCCC[C@@H]1NC(=O)[C@H](Cc2c[nH]c3c(C)cccc23)NC(=O)[C@H]([C@@H](C)O)NC(=O)[C@H](CC(N)=O)NC(=O)[C@@H](NC(C)=O)C(C)(C)SSC(C)(C)[C@@H](C(=O)N[C@@H](Cc2ccc(OCCN)cc2)C(=O)N[C@@H](Cc2ccc3ccccc3c2)C(=O)NC2(C(=O)N[C@@H](CCC(=O)O)C(=O)N[C@@H](CC(N)=O)C(=O)N[C@@H](Cc3cccnc3)C(=O)N(C)CC(N)=O)CCOCC2)NC1=O` [JNJ-77242113, S^3,1,S^3,6-cyclo[N-acetyl-3-sulfanyl-L-valyl-L-asparaginyl-L-threonyl-7-methyl-L-tryptophyl-N^6-acetyl-L-lysyl-3-sulfanyl-L-valyl-O-(2-aminoethyl)-L-tyrosyl-3-(naphthalen-2-yl)-L-alanyl-4-aminooxan-4-carbonyl-L-α-glutamyl-L-asparaginyl-3-(pyridin-3-yl)-L-alanyl-N^2-methylglycinamide]] yielded an inhibition at 10 µM ([1]; 1st run, read-out: Percent inhibition of control ligand binding, MAO-A, 1st run) of 12%, an inhibition at 10 µM ([1]; 2nd run, read-out: Percent inhibition of control ligand binding, MAO-A, 2nd run) of 10.3% and an inhibition at 10 µM ([1]; mean of 2 runs, read-out: Percent inhibition of control ligand binding, MAO-A, Mean) of 11.2%. The “Plasma exposure versus dose (in words)” value ([2]; 100-fold dose range of 10 to 1000 mg oral) was “Dose-proportional plasma exposure”, the “Accumulation for AUC, Day 1 versus Day 10” value [2, 10] was 0.9 to 1.5 and the “Accumulation for Cmax, Day 1 versus Day 10” value [2, 10] was 0.7 to 1.6. For the same compound, the “Estimated terminal elimination half-life” value ([2]; oral 10 to 1000 mg, plasma LC–MS/MS) was 9 to 16 h, the inhibition at 10 µM ([3]; 1st run, read-out: Percent inhibition of control ligand binding, CCK1 (CCKA), 1st run) was -29.4% and the inhibition at 10 µM ([3]; 2nd run, read-out: Percent inhibition of control ligand binding, CCK1 (CCKA), 2nd run) was -12.3%. The inhibition at 10 µM ([3]; mean of 2 runs, read-out: Percent inhibition of control ligand binding, CCK1 (CCKA), Mean) was -20.8%, the inhibition at 10 µM ([4]; 1st run, read-out: Percent inhibition of control ligand binding, CB2, 1st run) was -4.9% and the inhibition at 10 µM ([4]; 2nd run, read-out: Percent inhibition of control ligand binding, CB2, 2nd run) was -5.8%. For the same compound, the inhibition at 10 µM ([4]; mean of 2 runs, read-out: Percent inhibition of control ligand binding, CB2, Mean) was -5.4%, the inhibition at 10 µM ([5]; 1st run, read-out: Percent inhibition of control ligand binding, M1, 1st run) was -4.1% and the inhibition at 10 µM ([5]; 2nd run, read-out: Percent inhibition of control ligand binding, M1, 2nd run) was 3.3%. For the same compound, the inhibition at 10 µM ([5]; mean of 2 runs, read-out: Percent inhibition of control ligand binding, M1, Mean) was -0.4%, the inhibition at 10 µM ([6]; 1st run, read-out: Percent inhibition of control ligand binding, β1, 1st run) was -5.1% and the inhibition at 10 µM ([6]; 2nd run, read-out: Percent inhibition of control ligand binding, β1, 2nd run) was 7.7%. The inhibition at 10 µM ([6]; mean of 2 runs, read-out: Percent inhibition of control ligand binding, β1, Mean) was 1.3%, the inhibition at 10 µM ([7]; 1st run, read-out: Percent inhibition of control ligand binding, H1, 1st run) was -8.4% and the inhibition at 10 µM ([7]; 2nd run, read-out: Percent inhibition of control ligand binding, H1, 2nd run) was -9.8%. It also gave an inhibition at 10 µM ([7]; mean of 2 runs, read-out: Percent inhibition of control ligand binding, H1, Mean) of -9.1%, an inhibition at 10 µM ([8]; 1st run, read-out: Percent inhibition of control ligand binding, μ (MOP), 1st run) of 5.1% and an inhibition at 10 µM ([8]; 2nd run, read-out: Percent inhibition of control ligand binding, μ (MOP), 2nd run) of -4.8%. It also gave an inhibition at 10 µM ([8]; mean of 2 runs, read-out: Percent inhibition of control ligand binding, μ (MOP), Mean) of 0.1%, an inhibition at 10 µM ([9]; 1st run, read-out: Percent inhibition of control ligand binding, δ (DOP), 1st run) of -7.8% and an inhibition at 10 µM ([9]; 2nd run, read-out: Percent inhibition of control ligand binding, δ (DOP), 2nd run) of 0.4%. For the same compound, the inhibition at 10 µM ([9]; mean of 2 runs, read-out: Percent inhibition of control ligand binding, δ (DOP), Mean) was -3.7%, the inhibition at 10 µM (COX1; 1st run, read-out: Percent inhibition of control ligand binding, COX1, 1st run) was -18.8% and the inhibition at 10 µM (COX1; 2nd run, read-out: Percent inhibition of control ligand binding, COX1, 2nd run) was -37.6%. It also gave an inhibition at 10 µM (COX1; mean of 2 runs, read-out: Percent inhibition of control ligand binding, COX1, Mean) of -28.2%.

From article PMC11289455 (Scientific Reports, 2024)
